Laboratory results from paper PMC3457943, “Inhibition of poly(ADP-ribose) Polymerase Interferes with Trypanosoma cruzi Infection and Proliferation of the Parasite” (PLoS ONE, 2012).
Like-named read-outs stand apart in the source and are kept apart here.

Tests used:
hPARP-1 = conditions: cited from earlier work
[1] = tested on: pADPr formation in T. cruzi epimastigotes; test: In vivo inhibition of pADPr formation in epimastigotes challenged with hydrogen peroxide (Western blot); type: cell-based, Trypanosoma cruzi; conditions: 30 min pre-incubation, 300 µM hydrogen peroxide 10 min
Description: Cell viability was assessed by direct microscopic examination.
Trypanosoma cruzi epimastigotes were grown in LIT complete medium for 4 days up to a parasite density of 10^7 parasites/ml. Parasites were collected by centrifugation at 750×g for 5 minutes and resuspended in PBS-Glucose 2%. T. cruzi epimastigotes were pre-incubated in the presence of inhibitors for 30 minutes and treated with 300 µM hydrogen peroxide for 10 minutes. Cells were harvested by centrifugation at 1500×g, washed with PBS and resuspended in lysis buffer (50 mM Tris–HCl pH 8.0, 1.0 mM EDTA, 10% (v/v) glycerol, 10 mM 2-mercaptoethanol). Protease inhibitors 1 µg/mL trans-epoxysuccinyl-L-leucylamido(4-guanidino) butane (E-64), […], 1 mM phenylmethylsulfonylfluoride (PMSF), and 0.1 mM Na-tosyl-L-lysine chloro-methyl ketone (TLCK) and inhibitor 3-AB (1 mM) were added. Cells were lysed with an Ultrasonic Processor Model W385 Sonicator (Heat Systems-Ultrasonic Inc. Plainview) and the whole extract obtained was used for Western blot. 30 µg of protein were run on 10% SDS–PAGE gel and transferred to Amersham Hybond-ECL nitrocellulose membrane (GE healthcare), according to the manufacturer's instructions. […] The signal was detected with the Western Lightning Plus-ECL (PerkinElmer).

TcPARP [2] = target: TcPARP (Trypanosoma cruzi, UniProt Q4PQV7); test: Homogeneous fluorometric TcPARP activity assay (remaining NAD+); type: biochemical; conditions: 10 nM TcPARP, 500 nM NAD+
Description: (§1) Enzymatic activity was measured using a fluorometric assay, which quantifies the remaining NAD^+ after the enzymatic reaction, [10]. Briefly, TcPARP was incubated with 500 nM NAD^+ in a 96-well U-bottom black propylene plate (Greiner BioOne) in a final volume of 50 µl. The reaction was carried out at 25°C with shaking at 300 rpm using PST-60 HL plus Thermo Shaker (Biosan, Riga, Latvia). The reaction was terminated by the addition of 20 µl of 2 M KOH and 20 µl of 20% acetophenone in ethanol, and plate was incubated at room temperature for 10 minutes. Next, 90 µl of 88% formic acid was added and the plate was incubated at room temperature for 20 minutes. The fluorescence was measured on a Fluoroskan Ascent FL (Thermo Labsystems, Waltham, MA) using excitation at 355 nm and emission at 460 nm. The activity assay was optimized for TcPARP by assaying the effect of pH, DNA concentration, and various additives for the activity of the protein.
(§2) A small in-house library of known PARP inhibitors was screened to evaluate their inhibitory effect against TcPARP. The inhibitor stock solutions were prepared at 10 mM in 100% DMSO and stored at −20°C, except in the case of 3-aminobenzamide, which was prepared at a stock concentration of 1 M in 100% DMSO. The compounds were screened in duplicates at 10 µM and 1 µM concentrations with separate controls for each including only NAD^+ and the compound, but not TcPARP. The protein concentration in the reactions was 10 nM.
(§3) The IC50 value for the first generation PARP inhibitor 3-AB was determined as a reference value. The separate data points were measured in quadruplicates. […] The fluorescence signal was converted to inhibition percentage and fitted using sigmoidal dose-response fitting with variable slope (Graphpad Prism). The curves were extrapolated to 0% and 100% of inhibition by setting their inhibitor concentration 2 log units below or above the first and the last inhibitor concentration, respectively.

[3] = tested on: pADPr formation in human cells; set-up: method as in earlier work; conditions: cited from earlier work
TcPARP [4] = test: Homogeneous fluorometric TcPARP activity assay (remaining NAD+); type: biochemical, Trypanosoma cruzi; conditions: TcPARP IC50 versus literature hPARP-1 IC50
Description: as §1, §2, §3

T. cruzi epimastigotes [5] = test: Epimastigote growth inhibition assay (OD 600 nm); type: cell-based, Trypanosoma cruzi
Description: T. cruzi epimastigotes were grown in LIT complete medium for 4 days up to a parasite density of 10^7 parasites/ml. The culture was placed in 96-well sterile plates in 100 µl aliquots and PARP inhibitors were added. Nifurtimox and β-lapachone were used as control compounds. DMSO control was used at 1% v/v concentration. Optical density of the cultures was determined at 600 nm each day for four days to follow parasite growth. Controls for LIT growth medium bearing no parasites were also performed. In all experiments performed, conditions were tested in triplicates. Significance of the results were analysed with one-way ANOVA using GraphPad Prism version 5.03 for Windows (GraphPad Software).

T. cruzi amastigotes = tested on: T. cruzi amastigotes; set-up: method as in PMID 6330132; conditions: millimolar concentrations, mainly axenic amastigote cultures; cited from earlier work
Vero cells = test: Growth of uninfected Vero cells; type: cell-based; conditions: presence or absence of Olaparib
[6] = tested on: Trypanosoma cruzi infection of Vero cells; test: Trypanosoma cruzi infection of Vero cells; type: cell-based
Description: (§4) Vero cells were cultured in D-MEM medium (Gibco), supplemented with 2 mM L-glutamine, 10% (v/v) FCS, 100 U/ml penicillin and 100 mg/l streptomycin. The wild type (Sigma-Aldrich) and PARP silenced (sh_PARP) pulmonary adenocarcinoma A549 cell lines were provided by Dr. Virág and Dr. Erdélyi, from the University of Debrecen, Hungary. A549 cells were grown in RPMI-1640 medium (Gibco), supplemented with 2 mM L-glutamine, 1 mM Sodium Pyruvate, 10% (v/v) FCS, 100 U/ml penicillin and 100 mg/l streptomycin.
Trypomastigotes were collected by centrifugation of the supernatant of previously infected cultures at 1500×g at room temperature for 7 minutes and incubated for 3 hours at 37°C in order to allow the trypomastigotes to move from the pellet into the supernatant. After this period, the supernatant was collected and trypomastigotes were counted in a Neubauer chamber. […] For this, 50 trypomastigotes/cell were added to the medium of 24 hour-old monolayers and incubated for 24 hours at 37°C, after which they were removed by changing the cell culture medium. Infections were performed in the media above indicated, but supplemented with 3% (v/v) FCS.
The infection was allowed to proceed and growth medium was changed periodically during the first 5 days. […] At the indicated days, cells were fixed and stained by May Grünwald Giemsa technique. Cells were visualized using an Olympus BX41 microscope. Amastigotes and cells were counted using the ImageJ software in at least 7 microscopic fields. […] Alternatively, trypomastigotes in the supernatant of the cell cultures were counted without prior fixation on a Neubauer Chamber at the indicated days. All experiments were performed in triplicates. Significance of the results were analysed with two-way ANOVA using GraphPad Prism version 5.03 for Windows (GraphPad Software).

[7] = tested on: Trypanosoma cruzi infection of A549 wild type cells; test: Trypanosoma cruzi infection of A549 cells; type: cell-based; conditions: 25 nM
Description: as §4
Trypomastigotes were collected by centrifugation of the supernatant of previously infected cultures at 1500×g at room temperature for 7 minutes and incubated for 3 hours at 37°C in order to allow the trypomastigotes to move from the pellet into the supernatant. After this period, the supernatant was collected and trypomastigotes were counted in a Neubauer chamber. […]
The infection was allowed to proceed and growth medium was changed periodically during the first 5 days. […] Amastigotes and cells were counted using the ImageJ software in at least 7 microscopic fields. […] Alternatively, trypomastigotes in the supernatant of the cell cultures were counted without prior fixation on a Neubauer Chamber at the indicated days. […] Significance of the results were analysed with two-way ANOVA using GraphPad Prism version 5.03 for Windows (GraphPad Software).

T. cruzi epimastigotes [8] = tested on: T. cruzi epimastigotes; set-up: method as in PMID 17936287; conditions: millimolar concentrations; cited from earlier work
[9] = read-out: TcPARP pIC50±SE (converted)

TcPARP (Trypanosoma cruzi, UniProt Q4PQV7), sequence (Q4PQV7 1-592): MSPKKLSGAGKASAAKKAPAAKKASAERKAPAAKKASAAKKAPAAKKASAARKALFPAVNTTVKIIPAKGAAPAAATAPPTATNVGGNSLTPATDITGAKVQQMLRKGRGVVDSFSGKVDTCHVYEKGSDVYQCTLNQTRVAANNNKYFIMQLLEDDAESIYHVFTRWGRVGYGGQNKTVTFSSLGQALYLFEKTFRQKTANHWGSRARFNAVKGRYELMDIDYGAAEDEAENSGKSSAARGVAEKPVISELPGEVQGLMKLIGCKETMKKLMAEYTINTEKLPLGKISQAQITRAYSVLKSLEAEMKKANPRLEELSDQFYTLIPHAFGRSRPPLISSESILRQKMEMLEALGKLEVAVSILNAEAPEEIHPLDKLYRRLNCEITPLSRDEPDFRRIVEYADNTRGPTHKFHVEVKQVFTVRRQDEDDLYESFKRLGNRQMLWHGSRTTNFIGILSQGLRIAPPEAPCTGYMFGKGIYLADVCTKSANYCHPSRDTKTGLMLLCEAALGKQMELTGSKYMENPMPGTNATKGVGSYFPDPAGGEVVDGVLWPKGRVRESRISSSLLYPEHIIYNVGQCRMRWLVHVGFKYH

IC50 (TcPARP [2]; read-out: TcPARP IC50) [nM] | IC50 (TcPARP [2]; [9]) [nM] | SMILES | IC50 (hPARP-1) [nM] | other results
180 | – | Cn1cccc1/C=C1\C(=O)NC(=O)c2ccccc21 [BYK204165, (4Z)-4-[(1-methyl-1H-pyrrol-2-yl)methylidene]-1,2,3,4-tetrahydroisoquinoline-1,3-dione] | 45 | TcPARP pIC50±SE (TcPARP [2]): 6.74±0,090
– | – | Nc1ncnc2c1ncn2[C@@H]1O[C@H](C(=O)N2CCN(CC(=O)Nc3cccc4c3CNC4=O)CC2)[C@@H](O)[C@H]1O [EB-47, 2-(4-{[(2S,3S,4R,5R)-5-(6-amino-9H-purin-9-yl)-3,4-dihydroxyoxolan-2-yl]carbonyl}piperazin-1-yl)-N-(1-oxo-2,3-dihydro-1H-isoindol-4-yl)acetamide] | 45 | inhibition of pADPr formation in parasites ([1]; 43 nM): did not inhibit TcPARP at all; inhibition of pADPr formation in human cells [3]: inhibit pADPr formation; selectivity for TcPARP over hPARP-1 (TcPARP [4]): approximately five-fold
– | – | CC1CS(=O)(=O)CCN1/N=C/c1ccc([N+](=O)[O-])o1 (centres unmarked) [Nifurtimox] | – | effect on epimastigote growth (T. cruzi epimastigotes [5]; 2.5 µM): small effect
– | – | CC1(C)CCC2=C(O1)c1ccccc1C(=O)C2=O [β-lapachone] | – | effect on epimastigote growth (T. cruzi epimastigotes [5]; 2.5 µM): small effect
25 | 25.7 | CNCc1ccc(-c2[nH]c3cc(F)cc4c3c2CCNC4=O)cc1 [Rucaparib, 6-fluoro-2-{4-[(methylamino)methyl]phenyl}-3,10-diazatricyclo[6.4.1.0^{4,13}]trideca-1,4(13),5,7-tetraen-9-one] | – | –
230 | 224 | CN(C)CC(=O)Nc1ccc2[nH]c(=O)c3ccccc3c2c1 [PJ-34, 2-(dimethylamino)-N-(6-oxo-5,6-dihydrophenanthridin-2-yl)acetamide] | – | –
1600 | 1620 | O=c1[nH]c2ccccc2c2ccccc12 [Phenanthridinone, 5,6-dihydrophenanthridin-6-one] | 560 | –
1400 | 1380 | Cc1nc2c(c(=O)[nH]1)CSCC2 [DR2313, 2-methyl-1H,4H,5H,7H,8H-thiopyrano[4,3-d]pyrimidin-4-one] | – | –
1300 | 1260 | Oc1nc(C2CC2)nc2c1CSCC2 [RF03876, 2-cyclopropyl-5H,7H,8H-thiopyrano[4,3-d]pyrimidin-4-ol] | – | –
– | – | COc1cccc(C(N)=O)c1 [3-methoxybenzamide] | – | inhibition of differentiation of amastigotes to trypomastigotes (T. cruzi amastigotes): able to inhibit differentiation of amastigotes to trypomastigotes
26000 | 26300 | NC(=O)c1cccc(N)c1 [Compound 3-AB, 3-aminobenzamide] | 33000 | effect on T. cruzi epimastigote growth (T. cruzi epimastigotes [8]): able to reduce T. cruzi epimastigote growth; inhibition of differentiation of amastigotes to trypomastigotes (T. cruzi amastigotes): to a lesser extent; reduction of parasite growth compared to the control (T. cruzi epimastigotes [5]; 660 µM): approximately 60%; reduction of parasite growth compared to the control (T. cruzi epimastigotes [5]; 6.6 mM): approximately 60%
170 | 174 | NC(=O)c1cccc2ncc(-c3ccc(Cl)cc3)nc12 [CNQ, 3-(4-chlorophenyl)quinoxaline-5-carboxamide] | 33 | –

SMILES | IC50 (TcPARP [2]; read-out: TcPARP IC50) [nM] | IC50 (TcPARP [2]; [9]) [nM] | IC50 (hPARP-1) [nM] | other results
Nc1ccc2c3c(cccc13)C(=O)NC2=O [Compound 4-ANI, 8-amino-3-azatricyclo[7.3.1.0^{5,13}]trideca-1(12),5,7,9(13),10-pentaene-2,4-dione] | 43 | 42.7 | 22 | inhibition of pADPr formation in parasites ([1]; 215 nM): did not show complete inhibition
C[C@]1(c2nc3c(C(N)=O)cccc3[nH]2)CCCN1 [Veliparib, 2-[(2R)-2-methylpyrrolidin-2-yl]-1H-1,3-benzodiazole-4-carboxamide] | 83 | 83.2 | – | Ki (hPARP-1): 5 nM
O=C(c1cc(Cc2n[nH]c(=O)c3ccccc23)ccc1F)N1CCN(C(=O)C2CC2)CC1 [Olaparib, 4-({3-[(4-cyclopropanecarbonylpiperazin-1-yl)carbonyl]-4-fluorophenyl}methyl)-1,2-dihydrophthalazin-1-one] | 3.4 | 3.39 | – | growth of uninfected Vero cells (Vero cells): did not alter the growth of the cell line; number of trypomastigotes in the supernatant ([6]; 25 nM): no significant difference; number of amastigotes per cell ([6]; 25 nM in growth medium): decrease in the number of amastigotes per cell; % of Infected Cells, Day 2 ([6]; Olaparib 25 nM, mean±SD): 38.67±7.68%; % of Infected Cells, Day 4 ([6]; Olaparib 25 nM, mean±SD): 13.54±3.40 %; % of Infected Cells, Day 6 ([6]; Olaparib 25 nM, mean±SD): 22.03±2.36 %; number of amastigotes per cell ([7]; day 6 post-infection): markedly decreased; number of trypomastigotes in the growth medium ([7]; day 9 post-infection): no significant difference; decrease in growth of the parasites (T. cruzi epimastigotes [5]; 25 nM): 50%; effect on epimastigote growth (T. cruzi epimastigotes [5]; 25 nM): diminished epimastigote growth significantly
